Source: US20070010484A1, “Method for treating or inhibiting the effects of injuries or diseases that result in neuronal degeneration and method for promoting neurogenesis” (YEDA RESEARCH AND DEVELOPMENT CO. LTD., priority 2003, published 2007)
Entries after “also recorded” stand apart in the source; their conditions may differ.

Experiments:
human T cells [1] = assay: T-cell adhesion to fibronectin in presence of SDF-1α; format: cell-based; settings: 2 h pretreatment prior to SDF-1α, FN-coated plates, relative to untreated T cells
Method: Human T cells. T cells from the peripheral blood of healthy donors were isolated by negative selection using a RosetteSep™ antibody cocktail containing mabs against CD16, CD19, CD36, and CD56 (StemCell Technologies, Vancouver, BC). After incubation with the cocktail for 20 min at room temperature, blood samples were diluted in PBS with 2% fetal bovine serum, loaded on a Ficoll column (ICN Biomedical, Aurora, Ohio), and centrifuged at 1200× g for 20 min at room temperature. The cells were removed from the Ficoll column, washed, and cultured in RPMI containing antibiotics and 10% heat-inactivated FCS. T-cell adhesion assays. Adhesion of T cells to FN was assayed as described (Ariel et al., 1998). Briefly, flat-bottomed microtiter well plates were precoated with CSPG or FN (10 μg/ml) and the remaining binding sites were blocked with 1% BSA. […]-labeled T cells were resuspended in RPMI medium supplemented with 1% HEPES buffer and 0.1% BSA (adhesion medium). After preincubation 2 h with CSPG-DS at the indicated concentrations, the T cells were incubated (30 min, 37° C., humidified atmosphere of 7% CO2 in air) with SDF-1α and then added to the wells. […] Adherent cells were lysed with lysis buffer (1 M NaOH, 0.1% Triton X-100 in H2O), removed, and counted with a γ-counter (Packard, Downers Grove, Ill.).

SOCS-3 = assay: Western blot of SOCS-3 in T cells; format: cell-based, human; settings: T cells pretreated with CSPG-DS, relative to untreated T cells
Method: Western blot analysis of T-cell nuclear extracts. Purified T cells (5×10^6) were preincubated for 2 h with different concentrations of CSPG-DS. The cells were then replated at the same CSPG-DS concentration on 24-well plates pre-coated for 24 h with anti-CD3 mAb. The T cells were lysed in 10 mM HEPES, 1.5 mM MgCl2, 1 mM dithiothreitol, 1 mM PMSF, and 0.5% Nonidet P-40 (buffer A). The lysates were incubated on ice for 10 min and centrifuged at 2000 rpm for 10 min at 4° C. The supernatants (cytoplasmic extracts) were transferred and the pellets (nuclei) were suspended in buffer containing 30 mM HEPES, 450 mM NaCl, 25% glycerol, 0.5 mM EDTA, 6 mM dithiothreitol, 12 mM MgCl2 1 mM PMSF, 10 μg/ml leupeptin, 10 μg/ml pepstatin, and 1% phosphatase inhibitor cocktail (buffer B), and the suspension was incubated on ice for 30 min. The lysates were cleared by centrifugation (30 min, 14×10^3 rpm, 4° C.), and the resulting supernatants were analyzed for protein content. Sample buffer was added, the mixture was boiled, and the samples containing equal amounts of proteins were separated on 10% SDS-PAGE gel and transferred to nitrocellulose membranes. […]

TNF-α = TNF-α secretion by anti-CD3-activated T cells, ELISA; format: cell-based, human; settings: 2 h pretreatment, then anti-CD3 activation 24 h
PC12 cells = assay: LPA-induced neurite retraction in differentiated PC12 cells; format: cell-based, rat
Method: PC12 cell line: Rat pheochromocytoma (PC12) cells were cultured in DMEM containing 8% horse serum and either 8% FCS (culture medium) or 1% FCS (differentiation medium), and antibiotics. For assays of neurite outgrowth, the cells were plated (10^5 cell/well) on 13-mm glass coverslips, precoated with collagen (500 μg/ml) in 24-well plates. Treatment of PC12 cells with lysophosphatidic acid (LPA). PC12 cells were placed and were differentiated for 3 days in the presence of 100 ng/ml NGF, in collagen-precoated culture dishes (Corning). […] The cells were then fixed with 4% paraformaldehyde (PFA) and analyzed by Nomarski microscopy. The longest neurite of each cell was measured and the results are expressed as their mean±SEM.

human T cells [2] = assay: T-cell chemotaxis towards SDF-1α, transwell; format: cell-based; settings: 2 h pretreatment, FN-coated transwell, 3 h, relative to untreated cells
Method: Human T cells. T cells from the peripheral blood of healthy donors were isolated by negative selection using a RosetteSep™ antibody cocktail containing mabs against CD16, CD19, CD36, and CD56 (StemCell Technologies, Vancouver, BC). After incubation with the cocktail for 20 min at room temperature, blood samples were diluted in PBS with 2% fetal bovine serum, loaded on a Ficoll column (ICN Biomedical, Aurora, Ohio), and centrifuged at 1200× g for 20 min at room temperature. The cells were removed from the Ficoll column, washed, and cultured in RPMI containing antibiotics and 10% heat-inactivated FCS. T-cell chemotaxis. Migration of purified human T cells was measured with a transwell apparatus (6.5 mm diameter; Corning, New York, N.Y.) fitted with polycarbonate filters (pore size 5 μm). The filters separating the upper and lower chambers were pretreated with FN (20 μg/ml) for 1 h at 37° C. ^51[Cr]-labeled T cells were preincubated for 2 h with CSPG-DS at the indicated concentrations, and then suspended (2×10^6/ml) in RPMI containing 0.1% BSA, 0.1% L-glutamine, and antibiotics, and added to the upper chamber. The bottom chambers contained the same RPMI medium, with or without human SDF-1α (50 ng/ml). […]

[3] = PC12 cells with LPA plus CSPG-DSs

CC(=O)N[C@H]1C(O)O[C@H](COS(=O)(=O)O)[C@H](O)[C@@H]1O[C@@H]1OC(C(=O)O)=C[C@H](O)[C@H]1O (stereo partly drawn) [CSPG-DS, 2-acetoamido-2-deoxy-3-O-(β-D-gluco-4-enepyranosyluronic acid)-6-O-sulfo-D-galactose]
T-cell adhesion (human T cells [1]): significantly reduced
SOCS-3 level (SOCS-3): increase
secretion of TNF-α (TNF-α): significant reduction
LPA-induced neurite collapse / retraction (PC12 cells; NGF-differentiated PC12 cells, LPA 1 μg/ml 20 min together with CSPG-DSs (5 or 50 μg/ml)): dose-dependent reversal of the retraction process; also recorded: prevented
mean neurite length (PC12 cells; [3]): beneficial effect
number of neurite-bearing cells (PC12 cells; [3]): beneficial effect
T-cell migration towards SDF-1α (human T cells [2]): reduced
